# Data published in publication PMC11024192, “Dissolution and antioxidant potential of apigenin self nanoemulsifying drug delivery system (SNEDDS) for oral delivery” (Scientific Reports, 2024).
# Where “and” joins values, the source holds several entries; their conditions need not be identical. Identical values can stand only once.
# Tests used:
# [1] = Solubility of apigenin in oils, surfactants and cosurfactants (excess drug, shaking water bath, HPLC); format: physicochemical; details: 48 h, mean ± SD, n = 3
# Text: To formulate the SNEDDS, the selection of suitable oils, surfactants, and cosurfactants is important to enhance the solubility of actives and the loading efficiency. The components used in SNEDDS should maximize drug solubility and have good miscibility with each other to obtain a stable formulation. Therefore, the solubility of apigenin was firstly determined in the oils (Gelucire 44/14, Myritol 318, sunflower oil, and corn oil), surfactants (PEG-40 hydrogenated castor oil, Tween 20, Tween 80, Span 20, and Span 80), and cosurfactants (PEG 400 and Transcutol HP). Briefly, an excess amount of apigenin was weighed into 0.5 g of each excipient. The obtained mixtures were mixed using a vortex mixer and kept in a shaking water bath at 100 rpm and 37 ± 2 °C for 48 h. After equilibrium was achieved, the equilibrated sample was centrifuged at 8000 rpm for 20 min. The excess undissolved apigenin was discarded, and the supernatant was collected. The concentration of apigenin was analyzed by the high-performance liquid chromatography (HPLC). The experiments were performed in triplicate. The excipient in which apigenin was the most soluble was selected to form the pseudoternary phase diagram. The amount of apigenin was quantified by a validated reversed-phase HPLC (RP-HPLC) equipped with a UV/VIS detector (SHIMADZU Series 20AD, Japan). Apigenin was separated on a C18 column (Promosil C18, 4.5 × 250 mm, 5 µm) using methanol, acetonitrile, acetic acid, orthophosphoric acid, and water at a ratio of 40:20:0.05:0.05:40 by volume as the mobile phase at a flow rate of 0.6 mL/min with a detection wavelength of 352 nm. The column temperature was set to 30 °C. The standard curve of apigenin was linear in the concentration range of 0.05–40 µg/mL. Good linearity with a coefficient of determination (R^2) > 0.999 was achieved. The relative standard deviation (%RSD) of intraday and interday precision of the assay method for apigenin was below 6%, and the accuracy was within the range of 95–105%. The limit of quantification and limit of detection were 0.64 and 0.21 µg/mL, respectively.
# [2] = parameters: method as in PMID 34084146; details: cited from earlier work
# [3] = In vitro dissolution profile (apparatus type II, HPMC capsules) and release kinetics fitting; format: physicochemical; details: 37 °C, 100 rpm, 5 mg apigenin in HPMC capsule
# Procedure: The apigenin-loaded SNEDDS formulations GTP2575 and GTP3070 were selected for evaluating the in vitro dissolution because both formulations offered nearly 100% transmittance, an appropriate size with a narrow size distribution, a quick self-emulsification time, and great drug loading and encapsulation efficiency. […] Therefore, formulations GTP2575 and GTP3070 were preferred for in vitro dissolution study.
# Dissolution was performed by a dissolution apparatus type II (a paddle) (Vision G2 Elite 8, Hanson, CA, USA). The SNEDDS formulations GTP2575 and GTP3070 containing 5 mg of apigenin were added to HPMC capsules number 00. An equivalent 5 mg of apigenin coarse powder added to HPMC capsules using lactose monohydrate as the filler was the control. Each capsule was placed inside a sinker loaded with 900 mL of dissolution media (buffer solutions pH 1.2, 4.5, and 6.8) at 37.0 ± 0.5 °C with a rotating speed of 100 rpm. During the study, 5 mL of dissolution medium was removed at predetermined time intervals (10, 15, 20, 30, 45, 60, 90, and 120 min), and 5 mL of fresh buffer solution was replaced. The amount of apigenin dissolved in the dissolution media was determined by HPLC. The dissolution experiment was carried out in triplicate. The dissolution profile was plotted with the percent apigenin dissolved on the y-axis and time on the x-axis. The dissolution profiles of GTP2575, GTP3070, and the coarse powder in the dissolution media buffer pH 1.2, 4.5, and 6.8 were compared. The dissolution results of the SNEDDS formulations GTP2575 and GTP3070 in pH 1.2 buffer solution were fitted by determining the R^2 with various kinetic models such as zero-order (a constant release rate independent of the drug remaining), first-order (an exponential decay of the drug remaining), Higuchi (matrix systems where drug release is controlled by diffusion), Hixon–Crowell (release based on the change in the cube root of the drug remaining), and Korsmeyer–Peppas (an extension of the […] model that incorporates a release exponent). […]
# Caco-2 cells = assay: Intracellular (cellular) antioxidant activity (CAA) assay, DCFH-DA/AAPH; format: cell-based; details: apigenin 7 μg/mL final, ascorbic acid 0.01%w/v, mean ± SD; for AUC (area under the DCF fluorescence response curve over time): 1 h incubation, 600 µM AAPH; for CAA unit (%reduction): vs non-antioxidant treated control
# Text: The quantitative cellular antioxidant activity (CAA) assay is a useful method employed for determining the bioavailability of food antioxidants because it can account for several additional factors, such as cellular uptake and metabolism. The CAA assay uses a fluorescent probe (DCFH-DA) to monitor the inhibition of peroxyl radical-induced oxidation inside the cell. The ester form (DCFH-DA) is nonionic and nonpolar and can be transported across the cell membrane. Inside the cell, DCFH-DA is deacetylated by endogenous cellular esterase and left in its oxidizable DCFH form. Once the free radical generator AAPH is added to the system, peroxyl radicals begin to form. The addition of antioxidants that can enter the cell can compete with and quench the radicals, preventing DCFH from being oxidized to form DCF (fluorescent). The CAA unit takes into account the relative areas under the curves of the samples compared to the control. Caco-2 cells, intestinal barrier models, are an appropriate model for assessing the antioxidant activity, especially for the phenolic compound[21] being used in this study.
# The quantitative CAA of SNEDDS formulations GTP2575 and GTP3070 was evaluated in Caco-2 cells modified from the study of Kellett et al.[21]. Caco-2 cells were cultured in advanced DMEM supplemented with 10% endotoxin-free, heat-inactivated FBS, 1% L-glutamine, 1% penicillin (10,000 U/mL), and 1% streptomycin (10,000 μg/mL). Each test sample of SNEDDS was prepared by diluting with serum-free culture media to obtain an equivalent concentration of apigenin (14 µg/mL). The working solution (25 μM DCFH-DA in serum-free culture media) was prepared from a 12.5 mM DCFH-DA stock solution in MeOH. A 600 μM AAPH solution was prepared from a 60 mM AAPH stock solution in HBSS before experimental use. After Caco-2 cells reached confluence in a T-25 culture flask, the cells were washed twice with sterile PBS (pH 7.4) and dissociated from the surface using trypsin–EDTA. The cells were seeded in 96-well, black, flat-bottom tissue culture-treated dishes (Corning Costar, ME, USA). A density of 60,000 cells in 100 µL of culture media was added to each well and incubated until they reached confluency (24 h). The growth medium was removed after confluence was achieved, and the cells were then washed with PBS to remove any nonadherent and dead cells.
# At the time of the experiment, 50 µL of 25 μM DCFH-DA working solution was added to each well, followed by 50 µL of a test sample. As a result, the final concentration of apigenin of 7 μg/mL in each well was obtained. As a control, 50 µL of DCFH-DA working solution and serum-free culture media (no sample included) were utilized. Once the DCFH-DA and test samples were added, the cells were placed in the incubator for 1 h at 37 °C. After 1 h, the cells were washed with PBS 3 times to ensure that any antioxidant effect observed later in the assay was due only to the compounds internalized by the cells. […] The cells were then immediately placed in a BMG CLARIOstar (BMG LABTECH, NC, USA), where real-time fluorescence was measured initially and every five minutes for 1 h (a total of 13 readings were taken). The fluorescence was measured at an excitation wavelength of 485 nm and an emission wavelength of 538 nm. The antioxidant activity of test samples was quantified by evaluating the percent reduction in fluorescence. […] The percent reduction, or the CAA unit, was calculated using Eq. (3). The samples were evaluated in triplicate and reported as the mean ± SD. […]
Solubility at 37 °C ([1]; in Myritol 318 (oil)),Solubility at 37 °C ([1]; in PEG 400 (cosurfactant)),Solubility at 37 °C ([1]; in PEG-40 hydrogenated castor oil (surfactant)),Solubility at 37 °C ([1]; in Span 20 (surfactant)),Solubility at 37 °C ([1]; in Span 80 (surfactant)),Solubility at 37 °C ([1]; in Transcutol HP (cosurfactant)),Solubility at 37 °C ([1]; in Tween 20 (surfactant)),Solubility at 37 °C ([1]; in Tween 80 (surfactant)),Solubility at 37 °C ([1]; in corn oil),Solubility at 37 °C ([1]; in sunflower oil),"percent apigenin dissolved at 120 min ([3]; buffer pH 1.2, 900 mL)","percent apigenin dissolved at 120 min ([3]; buffer pH 4.5, 900 mL)","percent apigenin dissolved at 120 min ([3]; buffer pH 6.8, 900 mL)",SMILES,Solubility at 37 °C ([1]; in Gelucire 44/14 (oil)),Biopharmaceutical classification system (BCS) class [2],Solubility in water [2],AUC (area under the DCF fluorescence response curve over time) (Caco-2 cells; n = 3),"CAA unit (%reduction) (Caco-2 cells; n = 3, listed as Apigenin coarse powder)","CAA unit (%reduction) (Caco-2 cells; n = 3, listed as apigenin coarse powder)",CAA unit (%reduction) (Caco-2 cells; n = 3)
0.0003 ± 0.0000 mg/g,27.6349 ± 0.9833 mg/g,11.3645 ± 0.2659 mg/g,0.0013 ± 0.0000 mg/g,0.0007 ± 0.0001 mg/g,20.9544 ± 0.8715 mg/g,20.9996 ± 1.1273 mg/g,22.5921 ± 0.0290 mg/g,0.0003 ± 0.0000 mg/g,0.0004 ± 0.0000 mg/g,5%,2%,2%,O=c1cc(-c2ccc(O)cc2)oc2cc(O)cc(O)c12 [apigenin],7.77 ± 0.63 mg/g and 7.7686 ± 0.6332 mg/g,Class II,insoluble,"9,951,772 ± 1,061,408",12.70 ± 5.14 %,12.70% and 12.70 ± 5.14%,
,,,,,,,,,,,,,O=C1O[C@H]([C@@H](O)CO)C(O)=C1O [ascorbic acid],,,,"8,959,896 ± 1,441,639",,,21.61 ± 7.41%
